We go through one compound from US20080300235A1, “FXR Agonists for Reducing LOX-1 Expression” (Wyeth, priority 2007, published 2008).

The test system of test [1] is VCAM-1. Briefly: Expression of LOX-1 target gene VCAM-1 (FIG. 2). It is filed as in vivo, mouse.
Test [2] deals with CD36. Briefly: Expression of oxLDL hepatic scavenger receptor CD36 (FIG. 3). Conditions: specificity control. Format: in vivo, mouse. The text has this:
(§1) Since LOX-1 is regulated by oxLDL, LOX-1 mRNA expression was monitored in liver from LDLR−/− (LDLRKO) mice fed a western diet for 7 days.
Importantly, the regulation of LOX-1 by FXR was specific, since expression of another oxLDL hepatic scavenger receptor, CD36, was not affected by compound A (FIG. 3).

Test [3] relates to soluble LOX-1 (sLOX-1). Briefly: Serum soluble LOX-1 (sLOX-1) by ELISA based assay in mouse strains. Format: in vivo. The note with it: FIG. 5B. The text has this: Moreover, the expression of soluble LOX-1 (sLOX-1) in the serum was also monitored using an ELISA based assay after Compound A treatment. […] (FIG. 5B).
A general note: An ELISA detects its analyte on a solid surface through an enzyme-linked reagent.

For test [4], the system named is LOX-1. Briefly: Hepatic LOX-1 gene expression by real-time PCR in FXR KO or wildtype mice. Format: in vivo, mouse. Conditions: male FXR KO or wildtype mice, chow diet with 0.5% chenodeoxycholic acid (CA), 30 mpk orally daily 7 days, FIG. 6. As to the method: (§2) Male FXR deficient (FXR KO) or wildtype mice on a chow diet supplemented with 0.5% chenodeoxycholic acid (CA) were treated orally daily with 30 mpk of Compound A for 7 days, and hepatic gene expression of LOX-1 and VCAM-1 was determined by real-time PCR.
(Real-time PCR tracks product formation cycle by cycle.)

Test [5] relates to VCAM-1. The experiment in a line: Hepatic VCAM-1 gene expression by real-time PCR in FXR KO or wildtype mice. Format: in vivo, mouse. Conditions: male FXR KO or wildtype mice, chow diet with 0.5% chenodeoxycholic acid (CA), 30 mpk orally daily 7 days, FIG. 6. As to the method:
as §2

Test [6] has as its system LOX-1. Briefly: Hepatic LOX-1 mRNA expression in LDLR-/- mice fed a western diet. Format: in vivo, mouse. Conditions: liver, LDLR-/- (LDLRKO) mice, western diet 7 days, increasing concentrations of compound, FIG. 1.
Text: as §1

For test [7], the system named is LOX-1. The experiment in a line: LOX-1 expression in liver and kidney of diabetic KKAy mice. Format: in vivo, mouse. As to the method:
To determine whether FXR agonists could block LOX-1 gene expression under other settings, the regulation of LOX-1 by FXR was studied in the diabetic mouse strain, KKAy. […] The renal regulation of LOX-1 was also determined since FXR is also expressed in the kidney.

Consider `CC(C)OC(=O)C1=CN(C(=O)c2ccc(F)c(F)c2)CC(C)(C)c2c1[nH]c1ccccc21` [Compound A, isopropyl 3-(3,4-difluorobenzoyl)-1,1-dimethyl-1,2,3,6-tetrahydroazepino[4,5-b]indole-5-carboxylate], for which the “VCAM-1 (LOX-1 target gene) expression” value in test [1] was “significantly inhibited”. In test [2], the CD36 expression entry is reported as “not affected”. Besides, in test [3] (FXR KO mouse strain), the “sLOX-1 reduction in FXR KO mouse strain” value is listed as “dependent upon FXR”. The “serum sLOX-1” value in test [3] (various mouse strains, high fat diet, 30 mpk orally daily for 7 days) is reported as “significantly reduced”. Further, the “inhibition of hepatic LOX-1 gene expression, FXR KO vs wildtype” value in test [4] was “dependent upon FXR”. Further, the “inhibition of hepatic VCAM-1 gene expression, FXR KO vs wildtype” value in test [5] is on record as “dependent upon FXR”. Moreover, in test [6], the “LOX-1 mRNA induction by the western diet” value is reported as “dose dependently inhibited”. For the same compound, in test [7] (chow diet, 7 days treatment, FIG. 4A), the “hepatic LOX-1 expression” value was “significant repression”. For the same compound, the “renal LOX-1 expression” value in test [7] (kidney, FIG. 4B) was “significantly inhibited”.
